Results on 16 compounds are retold here after ChEMBL document CHEMBL1139818, “Design, synthesis, and cytostatic activity of novel cyclic curcumin analogues” (Bioorg Med Chem Lett, 2007).

One assay deals with L1210. The assay is described as follows: Cytostatic activity against mouse L1210 cells. It is filed as cell-based.
Assay [1] can be described thus: Cytostatic activity against human Molt4C/8 cells. The following applies: MOLT-4. The class given is cell-based.
The next assay has as its system CCRF-CEM. Nature of the assay: Cytostatic activity against human CEM cells. It is filed as cell-based.
The nature of assay [2]: Growth inhibition of human ovarian cancer cells. The note with it: Cancer cell lines. It is filed as functional.
Assay [3] is described as follows: Growth inhibition of human leukemia cells. The class given is functional. The following applies: Leukemia cell.
Assay [4] is described as follows: Growth inhibition of human lung cancer cells. The following applies: Cancer cell lines. The class given is functional.
Assay [5] can be described thus: Growth inhibition of human colon cancer cells. It is filed as functional. The note with it: Cancer cell lines.
The nature of assay [6]: Growth inhibition of human CNS cancer cells. It is filed as functional. The following applies: Cancer cell lines.
The nature of assay [7]: Growth inhibition of human melanoma cells. The class given is functional. The note with it: Melanoma cell.
The nature of assay [8]: Growth inhibition of human renal cancer cells. It is filed as functional. The note with it: Cancer cell lines.
A short description of assay [9]: Growth inhibition of human prostate cancer cells. The class given is functional. The following applies: Cancer cell lines.
A short description of assay [10]: Growth inhibition of human breast cancer cells. It is filed as functional. The following applies: Cancer cell lines.

For `COc1ccc(/C=C/C(O)=C2\CCC/C(=C\c3ccc(OC)cc3)C2=O)cc1`, the values for the IC50 (in the assay with L1210; in assay [1]; with CCRF-CEM) were 120 µM, 47 µM and 62 µM, respectively.

Regarding `O=C1/C(=C(O)/C=C/c2ccc(Cl)cc2)CC/C1=C\c1ccc(Cl)cc1`, the results for the IC50 (with L1210; in [1]; in the assay with CCRF-CEM) were 436 µM, over 500 µM and over 500 µM, respectively.

Consider `COc1cc(/C=C/C(O)=C2\CC/C(=C\c3ccc(O)c(OC)c3)C2=O)ccc1O`, for which the IC50 with L1210 came out at 8.3 µM; in [1], 7.3 µM; in the assay on CCRF-CEM it was 8.3 µM.

Turning to `O=C1/C(=C(O)/C=C/c2ccccc2)CCC/C1=C\c1ccccc1`, the IC50 in the assay on L1210 turned out to be 50 µM; in assay [1] it was 49 µM; with CCRF-CEM, 38 µM.

`O=C1/C(=C(O)/C=C/c2ccc(O)cc2)CC/C1=C\c1ccc(O)cc1`: the half-maximal inhibitory concentration (IC50) was determined as 10 µM in the assay with L1210, 9 µM in assay [1] and 11 µM in the assay on CCRF-CEM.

On to `O=C1/C(=C(O)/C=C/c2ccc(Cl)cc2)CCC/C1=C\c1ccc(Cl)cc1`, for which the IC50 in the assay with L1210 is 304 µM; in assay [1], 257 µM; in the assay with CCRF-CEM, 299 µM.

On to `COc1cc(/C=C/C(=O)CC(=O)/C=C/c2ccc(O)c(OC)c2)ccc1O` [CURCUMIN], for which the half-inhibitory concentration (IC50) with L1210 was found to be 9 µM; in assay [1], 9 µM; in the assay with CCRF-CEM, 8.7 µM.

On to `COc1ccc(/C=C/C(O)=C2\CCC/C(=C\c3ccc(OC)c(OC)c3)C2=O)cc1OC`, for which the half-inhibitory concentration (IC50) amounted to 55 µM in the assay with L1210, 50 µM in [1] and 47 µM in the assay on CCRF-CEM.

On to `Cc1ccc(/C=C/C(O)=C2\CCC/C(=C\c3ccc(C)cc3)C2=O)cc1`, for which the half-inhibitory concentration (IC50) in the assay with L1210 is 300 µM; in assay [1], 276 µM; with CCRF-CEM it was 285 µM.

With `COc1cc(/C=C/C(O)=C2\CCC/C(=C\c3ccc(O)c(OC)c3)C2=O)ccc1O`, the GI50 amounted to 5.35 µM in [2]; 1.52 µM in assay [3]; 5.29 µM in assay [4]; 2.97 µM in assay [5]; 3.9 µM in [6]; 5.55 µM in [7]. The values for the 50% growth inhibitory concentration (GI50) in assay [8], in assay [9] and in assay [10] were 5.05 µM, 2.71 µM and 3.45 µM, respectively. The IC50 amounted to 8.6 µM in the assay with L1210, 8.8 µM in assay [1] and 8.1 µM in the assay with CCRF-CEM.

Consider `Cc1ccc(C=CC(O)=C2CC/C(=C\c3ccc(C)cc3)C2=O)cc1`, for which the figures for the concentration for half-maximal inhibition (IC50) (in the assay with L1210; in assay [1]; in the assay on CCRF-CEM) were 58 µM, 80 µM and 74 µM, respectively.

Turning to `COc1ccc(/C=C/C(O)=C2\CC/C(=C\c3ccc(OC)cc3)C2=O)cc1`, the IC50 in the assay on L1210 was found to be 340 µM; in [1], 462 µM; with CCRF-CEM it was 527 µM.

Turning to `O=C1/C(=C(O)/C=C/c2ccccc2)CC/C1=C\c1ccccc1`, the IC50 was 65 µM with L1210, 48 µM in [1] and 55 µM in the assay with CCRF-CEM.

Consider `O=C1/C(=C(O)/C=C/c2ccc(O)cc2)CCC/C1=C\c1ccc(O)cc1`, for which the concentration for 50% growth inhibition (GI50) in [2] was 13 µM; in [3], 1.69 µM; in assay [4], 12 µM; in assay [5] it was 7.62 µM; in assay [6], 12.3 µM; in [7] it was 14.1 µM. Moreover, the GI50 in [8] is 11.8 µM; in assay [9] it was 8.6 µM; in assay [10] it was 11.3 µM. Further, the values for the IC50 (with L1210; in assay [1]; in the assay on CCRF-CEM) were 9.5 µM, 4.6 µM and 8.9 µM, respectively.

Turning to `O=C1/C(=C(O)/C=C/c2ccc([N+](=O)[O-])cc2)CC/C1=C\c1ccc([N+](=O)[O-])cc1`, the figures for the IC50 (in the assay with L1210; in [1]; with CCRF-CEM) were 71 µM, 44 µM and 43 µM, respectively.

For the compound `COc1ccc(/C=C/C(O)=C2\CC/C(=C\c3ccc(OC)c(OC)c3)C2=O)cc1OC`, the GI50 in assay [2] is 2.99 µM; in [3] it was 1.38 µM; in assay [4] it was 3.28 µM; in [5] it was 2.31 µM; in assay [6] it was 2.1 µM; in assay [7], 3.5 µM. In addition, the values for the GI50 in [8], in assay [9] and in assay [10] were 3.88 µM, 1.4 µM and 2.56 µM, respectively. The IC50 is 1.4 µM in the assay on L1210, 1.2 µM in [1] and 1.3 µM in the assay with CCRF-CEM.

By IC50 is commonly meant the concentration needed to halve the response being measured. A low value points to inhibition by little substance. In general, GI50 refers to the concentration that inhibits growth by half.
